In data set [1] the target is T1, P2X purinoceptor 4 (Homo sapiens) (UniProt Q99571).
T1 sequence (whole entry): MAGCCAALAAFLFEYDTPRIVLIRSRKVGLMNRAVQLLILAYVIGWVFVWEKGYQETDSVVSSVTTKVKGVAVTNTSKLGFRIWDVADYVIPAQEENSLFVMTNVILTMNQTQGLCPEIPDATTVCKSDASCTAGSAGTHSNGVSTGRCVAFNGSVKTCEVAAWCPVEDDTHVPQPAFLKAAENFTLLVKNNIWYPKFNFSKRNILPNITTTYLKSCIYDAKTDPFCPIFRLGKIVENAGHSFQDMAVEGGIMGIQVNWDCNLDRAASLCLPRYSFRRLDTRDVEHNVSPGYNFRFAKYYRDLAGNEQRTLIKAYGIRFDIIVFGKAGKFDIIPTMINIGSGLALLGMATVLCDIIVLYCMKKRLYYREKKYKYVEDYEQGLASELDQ
The data set is described as follows: Antagonist activity at human P2X4 receptor expressed in 1321N1 cells assessed as inhibition of ATP-induced calcium flux at 1 uM measured for 30 secs at 0.4 secs intervals by Flou-4-AM dye based fluorescence assay relative to control. It counts as cell-based.

For data set [2], the species on record is Homo sapiens. The data set is described as follows: Antiproliferative activity against human TS15-88 cells at 50 uM after 24 hrs by MTS assay. In kind it is functional, cell-based.
Data set [3] concerns the target T2, P2X purinoceptor 7 (Homo sapiens) (UniProt Q99572).
T2 sequence (whole entry): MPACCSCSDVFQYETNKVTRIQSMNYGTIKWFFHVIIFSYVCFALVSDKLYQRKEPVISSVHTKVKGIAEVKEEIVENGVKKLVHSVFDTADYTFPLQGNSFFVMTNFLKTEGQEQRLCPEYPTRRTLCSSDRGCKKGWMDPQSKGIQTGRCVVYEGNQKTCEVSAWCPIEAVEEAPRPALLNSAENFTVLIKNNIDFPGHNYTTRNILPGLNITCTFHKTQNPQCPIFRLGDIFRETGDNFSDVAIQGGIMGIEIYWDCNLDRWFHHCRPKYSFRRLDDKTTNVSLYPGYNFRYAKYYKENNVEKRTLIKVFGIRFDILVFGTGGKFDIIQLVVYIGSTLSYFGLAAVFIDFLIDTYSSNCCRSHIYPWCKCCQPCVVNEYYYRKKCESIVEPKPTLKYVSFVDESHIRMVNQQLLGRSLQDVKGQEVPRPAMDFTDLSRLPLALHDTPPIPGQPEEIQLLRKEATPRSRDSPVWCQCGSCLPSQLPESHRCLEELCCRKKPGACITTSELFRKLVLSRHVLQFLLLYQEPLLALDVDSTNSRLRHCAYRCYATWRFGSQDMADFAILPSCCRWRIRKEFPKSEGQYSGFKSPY
The data set is described as follows: Antagonist activity at human P2X7 receptor expressed in HEK293 cells assessed as inhibition of BzATP-induced EtBr uptake at 1 uM after 2 hrs by fluorescence assay relative to control. It counts as cell-based.

Data set [4] addresses T2, P2X purinoceptor 7 (Homo sapiens). The data set is described as follows: Antagonist activity at human P2X7 receptor expressed in HEK293 cells assessed as inhibition of BzATP-induced EtBr uptake at 10 uM after 2 hrs by fluorescence assay relative to control. It counts as cell-based.
The species entered for data set [5] is Homo sapiens. The data set is described as follows: Antiproliferative activity against human TS15-88 cells at 50 uM after 72 hrs by MTS assay. It counts as functional, cell-based.
Data set [6] concerns the target T3, P2X purinoceptor 1 (Homo sapiens) (UniProt P51575).
T3 sequence (whole entry): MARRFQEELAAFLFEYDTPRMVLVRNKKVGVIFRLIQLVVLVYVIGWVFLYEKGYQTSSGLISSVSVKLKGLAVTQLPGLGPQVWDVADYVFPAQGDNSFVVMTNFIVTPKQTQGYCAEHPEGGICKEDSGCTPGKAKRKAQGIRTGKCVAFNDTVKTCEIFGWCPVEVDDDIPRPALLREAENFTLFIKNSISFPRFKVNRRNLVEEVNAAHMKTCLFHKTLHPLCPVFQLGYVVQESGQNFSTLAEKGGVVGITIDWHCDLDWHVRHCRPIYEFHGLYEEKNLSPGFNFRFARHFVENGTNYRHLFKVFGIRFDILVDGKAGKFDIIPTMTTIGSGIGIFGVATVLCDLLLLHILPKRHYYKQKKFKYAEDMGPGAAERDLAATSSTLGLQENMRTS
The data set is described as follows: Antagonist activity at human P2X1 receptor expressed in 1321N1 cells assessed as inhibition of ATP-induced calcium flux at 1 uM measured for 30 secs at 0.4 secs intervals by Flou-4-AM dye based fluorescence assay relative to control. In kind it is cell-based.

Data set [7] deals with T4, P2X purinoceptor 7 (Homo sapiens, UniProt Q99572).
T4 sequence (Q99572 whole entry): T2 sequence (whole entry)
The data set is described as follows: Antagonist activity at P2X7 in LPS/IFN gamma differentiated human THP-1 cells assessed as inhibition of BzATP-induced IL-1beta release preincubated for 30 mins followed by BzATP stimulation for 30 mins by ELISA. In kind it is cell-based.

For data set [8], the target named is T4, P2X purinoceptor 7. The data set is described as follows: Antagonist activity at human P2X7 receptor expressed in HEK293 cells assessed as inhibition of BzATP-induced EtBr uptake after 2 hrs by fluorescence assay relative to control. It counts as cell-based.
Data set [9] has as its target T5, P2X purinoceptor 2 (Homo sapiens) (UniProt Q9UBL9).
T5 sequence (whole entry): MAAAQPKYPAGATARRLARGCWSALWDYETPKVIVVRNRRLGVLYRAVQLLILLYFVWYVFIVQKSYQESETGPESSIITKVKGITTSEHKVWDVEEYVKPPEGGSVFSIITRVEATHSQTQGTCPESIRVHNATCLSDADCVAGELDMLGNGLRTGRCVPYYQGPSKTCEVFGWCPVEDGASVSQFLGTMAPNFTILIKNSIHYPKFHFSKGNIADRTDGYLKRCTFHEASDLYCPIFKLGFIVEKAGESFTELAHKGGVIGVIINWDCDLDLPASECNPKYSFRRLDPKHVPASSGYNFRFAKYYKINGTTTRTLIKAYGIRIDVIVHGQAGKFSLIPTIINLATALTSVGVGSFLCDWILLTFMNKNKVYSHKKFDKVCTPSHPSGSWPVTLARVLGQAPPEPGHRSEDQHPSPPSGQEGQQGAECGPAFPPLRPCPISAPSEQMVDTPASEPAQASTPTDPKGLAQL
As to the kind of experiment: Antagonist activity at human P2X2 receptor expressed in 1321N1 cells assessed as inhibition of ATP-induced calcium flux at 1 uM measured for 30 secs at 0.4 secs intervals by Flou-4-AM dye based fluorescence assay relative to control. In kind it is cell-based.

Data set [10] addresses T6, P2X purinoceptor 3 (Homo sapiens, UniProt P56373).
T6 sequence (P56373 whole entry): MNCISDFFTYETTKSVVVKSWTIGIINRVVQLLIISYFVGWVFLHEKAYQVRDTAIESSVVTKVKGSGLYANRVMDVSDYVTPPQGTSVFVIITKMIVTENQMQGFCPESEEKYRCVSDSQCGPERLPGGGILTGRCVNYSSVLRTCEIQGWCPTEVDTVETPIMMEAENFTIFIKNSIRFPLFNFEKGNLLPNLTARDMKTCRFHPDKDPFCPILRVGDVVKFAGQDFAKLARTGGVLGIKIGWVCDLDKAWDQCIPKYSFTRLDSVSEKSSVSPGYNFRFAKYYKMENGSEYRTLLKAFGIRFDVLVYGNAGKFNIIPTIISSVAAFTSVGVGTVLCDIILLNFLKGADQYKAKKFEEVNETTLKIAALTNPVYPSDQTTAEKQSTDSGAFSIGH
The data set is described as follows: Antagonist activity at human P2X3 receptor expressed in 1321N1 cells assessed as inhibition of ATP-induced calcium flux measured for 30 secs at 0.4 secs intervals by Flou-4-AM dye based fluorescence assay. It counts as cell-based. To be noted: read-out: IC50.

Data set [11] is described as follows: (§1) Inhibition of neurosphere formation in human TS15-88 cells assessed as decrease in sphere size at 50 uM after 5 days by microscopic analysis relative to control. It counts as functional. As to conditions: 120 h.
Data set [12] in a line: Cytotoxicity against HEK293 cells expressing human P2X7 receptor assessed as cell survival at 10 uM by MTT assay relative to control. It counts as cell-based. To be noted: read-out: Survival.
The target in data set [13] is T7, P2X purinoceptor 1 (Rattus norvegicus, UniProt P47824).
T7 sequence (P47824 whole entry): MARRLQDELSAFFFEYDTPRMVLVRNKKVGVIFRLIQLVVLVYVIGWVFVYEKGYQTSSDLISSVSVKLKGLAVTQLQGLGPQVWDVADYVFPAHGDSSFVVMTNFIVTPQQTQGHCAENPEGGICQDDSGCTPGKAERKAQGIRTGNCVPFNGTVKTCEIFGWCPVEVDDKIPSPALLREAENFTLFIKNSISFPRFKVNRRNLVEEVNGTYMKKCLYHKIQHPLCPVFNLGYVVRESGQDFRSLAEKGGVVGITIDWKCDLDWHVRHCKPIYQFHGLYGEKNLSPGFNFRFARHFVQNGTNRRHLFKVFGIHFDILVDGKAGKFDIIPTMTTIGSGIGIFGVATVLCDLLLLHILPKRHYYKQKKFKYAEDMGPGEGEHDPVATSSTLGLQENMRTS
The data set is described as follows: Antagonist activity at P2X1 receptor in rat vas deferens assessed as inhibition of alphabeta me-ATP-induced response.

The target of data set [14] is P2X purinoceptor 1 (Rattus norvegicus, UniProt P47824). The data set is described as follows: Antagonist activity at wild type His6 tagged rat P2X1 receptor expressed in Xenopus laevis oocytes assessed as inhibition of alphabeta-me ATP-induced calcium flux at -60 mV holding potential by two electrode voltage clamp method. In kind it is cell-based.
In data set [15] the target is T8, P2X purinoceptor 3 (Rattus norvegicus, UniProt P49654).
T8 sequence (P49654 whole entry): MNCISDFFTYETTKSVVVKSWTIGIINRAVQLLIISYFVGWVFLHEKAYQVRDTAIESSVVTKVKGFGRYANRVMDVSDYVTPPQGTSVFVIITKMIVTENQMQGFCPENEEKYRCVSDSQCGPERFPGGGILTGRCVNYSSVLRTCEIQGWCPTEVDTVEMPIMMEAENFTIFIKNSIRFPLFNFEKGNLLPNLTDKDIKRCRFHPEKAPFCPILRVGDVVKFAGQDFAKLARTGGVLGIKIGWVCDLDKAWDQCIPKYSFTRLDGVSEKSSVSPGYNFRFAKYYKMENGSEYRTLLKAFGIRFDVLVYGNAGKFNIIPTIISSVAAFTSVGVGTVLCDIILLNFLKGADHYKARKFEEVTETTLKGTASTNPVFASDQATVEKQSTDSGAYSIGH
The data set is described as follows: Antagonist activity at P2X3 receptor in rat DRG neurons at -70 mV holding potential by whole cell patch clamp method.

The nature of data set [16]: Effective permeability of the compound at 50 uM after 4 hrs by BBB-PAMPA method. It counts as ADME. As to conditions: read-out: Peff.
The nature of data set [17]: Metabolic stability in mouse liver microsomes assessed as parent compound remaining at 1 uM up to 30 mins in presence of NADPH by LC-MS/MS analysis. In kind it is ADME, microsome. To be noted: read-out: Stability.
Data set [18] in a line: Kinetic solubility of the compound in PAMPA buffer at 50 uM by nepheolometry method. It counts as physicochemical.
Data set [19] in a line: Metabolic stability in human liver microsomes assessed as parent compound remaining at 1 uM up to 30 mins in presence of NADPH by LC-MS/MS analysis. To be noted: read-out: Stability. In kind it is ADME, microsome.
Data set [20] is described as follows: Metabolic stability in rat liver microsomes assessed as parent compound remaining at 1 uM up to 30 mins in presence of NADPH by LC-MS/MS analysis. As to conditions: read-out: Stability. In kind it is ADME, microsome.
Data set [21] can be described thus: Kinetic solubility of the compound in PAMPA buffer at 25 uM by nepheolometry method. It counts as physicochemical.
A short description of data set [22]: Kinetic solubility of the compound in PAMPA buffer at 12.5 uM by nepheolometry method. It counts as physicochemical.
For data set [23], the species on record is Homo sapiens. The description is as §1. In kind it is functional.

Active and inactive are the calls of the source. No cut-off for these calls is given here. Where only a bound is given, the exact number is not on record here.

Consider `COc1ccc(-c2ccc3c(NC(=O)CC45CC6CC(CC(C6)C4)C5)cccc3n2)cc1`, for which the inhibition in [1] was 17%; in data set [3] it was 89%; in [4], 97%; in [6] it was 25%; in data set [9], 3%. Further, the outcome in data set [2] was inactive. Further, the outcome in data set [5] was Active. In addition, the IC50 in data set [7] was found to be 29 nM; in data set [8], 18 nM; in data set [10] it was 3000 nM. Besides, the inhibition at 50 µM in data set [11] is > 50%. Also, the viability at 10 µM in [12] came out at 90%.
Take `Nc1c(S(=O)(=O)O)cc(Nc2ccc(S(=O)(=O)O)c(Nc3nc(Cl)nc(Cl)n3)c2)c2c1C(=O)c1ccccc1C2=O`: the IC50 in [13] was 4700 nM; in [14], 570 nM.
In [15], `O=C(Nc1cc(C(=O)Nc2ccc(S(=O)(=O)O)cc2)cc(C(=O)Nc2ccc(S(=O)(=O)O)cc2)c1)Nc1cc(C(=O)Nc2ccc(S(=O)(=O)O)cc2)cc(C(=O)Nc2ccc(S(=O)(=O)O)cc2)c1` registered a 50% inhibitory concentration (IC50) of 500 nM.
Turning to `O=C(CC12CC3CC(CC(C3)C1)C2)Nc1cccc2nc(-c3ccc(C(=O)O)cc3)ccc12`, the Papp at 4 h, 50 µM in [16] lay in the range of 8.44 to 8.46 ×10⁻⁶ cm/s. Further, the remaining at 0.5 h, 1 µM in [17] turned out to be 8.1%; in [19], 40.5%; in data set [20], 10.9%. In addition, in data set [2], the result was inactive. Also, the inhibition in data set [3] was found to be 87%; in data set [4], 93%. In addition, the concentration for half-maximal inhibition (IC50) came out at 25 nM in [7] and 8 nM in data set [8]. Also, the Kinetic_solubility result in data set [18], in data set [21] and in data set [22] was “Soluble” in each case. Besides, the inhibition entry in data set [23] is “inactive”. Further, in data set [12], the viability at 10 µM worked out at 94%.

For the origin of these results see ChEMBL document CHEMBL4152208, “Synthesis and structure-activity relationships of quinolinone and quinoline-based P2X7 receptor antagonists and their anti-sphere formation activities in glioblastoma cells” (Eur J Med Chem, 2018).
